Reference: patent US20070116820A1, “EDIBLE GEL COMPOSITIONS COMPRISING HIGH-POTENCY SWEETENERS” (THE COCA-COLA COMPANY, priority 2005, published 2007)

What was measured:
[1] = Rate of dissolution of rebaudioside A polymorph and amorphous forms in H2O at 25° C.; format: physicochemical
[2] = format: physicochemical
Experimental: A solution of rebaudioside A (>97% pure by HPLC ) was prepared in double distilled water (12.5 gm in 50 mL, 25% concentration) by stirring the mixture at 40° C. for 5 minutes. An amorphous form of rebaudioside A was formed by immediately using the clear solution for spray drying with the Lab-Plant spray drier SD-04 instrument (Lab-Plant Ltd., West Yorkshire, U.K.). The solution was fed through the feed pump into the nozzle atomizer which atomized it into a spray of droplets with the help of a constant flow of nitrogen/air. […] This dry powder (11-12 g, H2O 6.74%) was discharged continuously from the drying chamber and was collected in a bottle.

Substance	Rate of dissolution in H2O at 25° C. ([1]; per 5 minutes)	Rate of dissolution in H2O at 25° C. ([1]; per 60 minutes)	solubility in water at room temperature [2] [%]
rebaudioside A [Form 2]	(<30%/ %/5 minutes		
rebaudioside A [Form 3]	High (>30%/ %/5 minutes		
rebaudioside A [Form 1]		(<0.2%/ %/60 minutes	
rebaudioside A [Form 4]	High (>35.0%/ %/5 minutes		> 35.0
